Source: EP1551873B1, “AGONISTS AND ANTAGONISTS OF THE HUMAN ODORANT RECEPTOR OR17-4 AND USES THEREOF” (Symrise AG, priority 2002, dated 2004)

Columns and labels:
[1] = target: T1, hOR17-4 Rezeptor der vollen Länge (Homo sapiens, UniProt P34982); assay: Ca2+ imaging of HEK293 cells expressing full-length receptor (pOR17-4v); format: cell-based
T1 construct: wurde der Rezeptor hOR17-4 in seiner vollen Länge wie in Beispiel 3 beschrieben kloniert; expressed in transfected cells; host or cells: HEK293, transient, plasmid pOR17-4v (pRC/CMV)
T1 sequence (P34982 1-312): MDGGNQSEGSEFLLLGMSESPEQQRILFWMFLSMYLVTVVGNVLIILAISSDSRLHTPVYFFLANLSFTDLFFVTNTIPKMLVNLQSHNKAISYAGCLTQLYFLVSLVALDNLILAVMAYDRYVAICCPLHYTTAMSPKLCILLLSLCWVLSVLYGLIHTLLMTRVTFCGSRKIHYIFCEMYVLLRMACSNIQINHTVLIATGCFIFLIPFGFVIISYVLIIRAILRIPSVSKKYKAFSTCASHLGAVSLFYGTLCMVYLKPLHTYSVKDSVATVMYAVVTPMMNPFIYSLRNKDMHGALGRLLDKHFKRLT
Source text: Um einen Expressionsvektor für das gesamte hOR17-4-Gen ohne geänderte Aminosäuresequenz zu erhalten, wurde das 982 bp lange PCR-Produkt (SEQ ID NO. 3, Herstellung vergleiche Beispiel 2) über stumpfe Enden in den Hindlll/Xbal verdauten Vektor pRC/CMV (Invitrogen, Carlsbad, CA), dessen überhängende Enden mit Klenow-Enzym aufgefüllt worden waren, einkloniert.
HEK293-Zellen wurden in MEM (Life Technologies, Gaithersburg, MD), das mit 10 % hitze-inaktiviertem fetalem Kälber-Serum angereichert war, in einem Inkubator bei 37 °C in einer Atmosphäre aus 95 % befeuchteter Luft und 5 % CO2 kultiviert. Semikonfluente Zellen wurden in 35 mm Gefäßen (Falcon) mittels Calciumphosphat-Präzipitation (Zufall et al., PNAS 90 (1993), 9335-9339) unter Verwendung jeweils des Plasmids pOR17-4 bzw. pOR17-4v transfiziert. […]
Die Ca^2+-imaging-Experimente wurden auf dem Träger eines invertierten Zeiss-Mikroskopes durchgeführt, das für die ratiofluorometrische Bildgebung mit einer Xenon-Bogenlampe, einem Vielfach-Wellenlängen-Illuminations-System POLYCH-ROM II zur Anregung, einer gekühlten charge-coupled device (CCD)-Kamera und einer WinNT-basierten T.I.L.L.-Vision-Software zum Sammeln und raum- und zeitabhängigen Quantifizieren Ca^2+-abhängiger Fluoreszenz-Signale (F340/F380-Verhältnis) ausgestattet war. […]

humane Spermien = assay: Sperm activation bioassay: swimming speed by computer-assisted video motion analysis (CAVMA); format: cell-based, human
Description: Gefrorene Samenproben von fünf gesunden Spendern wurden aus der California Cryobank (Los Angeles, CA, USA) erhalten und für Bioassays gemäß den World Health Organization-Richtlinien (World Health Organization: Laboratory for the examination of human serum and semen-cervical mucus interaction, Cambridge University Press (1993)) vorbereitet. Nachdem die Suspensionen auf 37 °C für 10 Minuten gebracht worden waren, wurde jede Probe in HEPES-gepufferter humaner Tubarflüssigkeit (HTF; Irvine Scientific, Santa Ana, CA, USA) überführt und auf 10^7 Zellen/ml eingestellt. Die Lösungen wurden dann bei 37 °C in einer 5 %-igen CO2-Atmosphäre aufbewahrt und innerhalb von 30 Minuten für Experimente verwendet (P. Quinn, Journal of Assisted Reproductive Genetics 12, 97-105 (1995)). Die Reaktionen von Sperma auf Bourgeonal wurde (a) durch computer-assisted video motion analysis (CAVMA) gemessen, um Veränderungen in der Schwimmgeschwindigkeit (Spermaaktivierung) zu detektieren, und (b) in einem flat capillary-Assay für die Chemotaxis in der Nähe einer Diffusionsmaterialquelle untersucht. Für jede Test-oder Kontroll-Behandlung wurden fünf wiederholte Experimente unter Verwendung von Sperma der fünf Spender durchgeführt. Die Daten der Bioassays wurden statistisch durch Ein-Weg-Varianzanalyse (ANOVA) unter Verwendung eines post-hoc Scheffe-Tests (R. W. Day and G. P. Quinn, Ecol. Monogr. 59, 433-463 (1989)) analysiert. Eine Bonferroni-Korrektur wurde zum Angleichen der α-Levels für multiple Vergleiche verwendet.
Zur Untersuchung der Spermien-Aktivierung wurden Bioassays für die Schwimmgeschwindigkeit bei 37 °C durchgeführt. Spermien wurden sanft einer Kontroll- oder Testlösung einheitlicher Konzentration zugefügt. Die Bilder von Spermien (3,0 x 10^3 Zellen/ml) wurden dann unter Verwendung einer Videokamera (NEC Modell TI 23A), die auf einem Olympus IX70-Lichtmikroskop montiert war, bei 90-facher Vergrößerung aufgenommen. Um mögliche Artefakte durch Reibungskräfte zu minimieren, besaß die Kamera eine 100 µm Feldtiefe und fokussierte auf eine Region, die annäherend 2 mm von der nächsten Oberfläche entfernt war. Videobilder von Spermien wurden mit 30 Bildern/Sekunde digitalisiert und über 10-Sekundenintervalle unter Verwendung eines CAVMA-Systemes (Motion Analysis Corporation, Modell VP 320, Expert Vision und Benutzter-Software), verbunden mit einer Sun SPARC 2 Computer-Arbeitsstation bearbeitet (J. A. Riffell, P. J. Krug, R. K. Zimmer, Journal of Experimental Biology 205, 1439-1450 (2002)). Die Schwimmgeschwindigkeit wurde auf einer Bild-zu-Bild-Basis bestimmt und danach über jeden einzelnen zurückgelegten Weg gemittelt. Um zu vermeiden, sich horizontal anstatt vertikal bewegende Zellen zu messen, wurden kurze Wege mit weniger als 11 Bildern verworfen, bei denen sich die Spermien um mehr als 20 % in ihrer scheinbaren Größe veränderten.

| SMILES | Aktivierung des vollständigen Rezeptors hOR17-4 [1] | Konzentration ohne weiteren Anstieg der Schwimmgeschwindigkeit (humane Spermien) | EC50 (humane Spermien; Homo sapiens, Sperm, 37 °C, read-out: ED50 (Konzentration, die die halbmaximale Antwort hervorruft), Schwimmgeschwindigkeit) [nM] | Konzentrationen mit signifikanten Antworten im Verhältnis zur HTF-Kontrolle, Schwimmgeschwindigkeit (humane Spermien; Scheffé test P ≤ 0,03) | Inhibition der Bourgeonal-Antwort ([1]; 30 to 60 s pre-incubation of the cells) | Effekt auf das Spermienverhalten, Schwimmgeschwindigkeit (humane Spermien; 10^-7 M alone, P > 0,99) | Schwimmgeschwindigkeit als Antwort auf 10^-7 M Bourgeonal relativ zur HTF-Kontrolle (humane Spermien; co-applied with 10^-6, 10^-7 or 10^-8 M n-Undecanal, P > 0,99) |
| --- | --- | --- | --- | --- | --- | --- | --- |
| CC(C)(C)c1ccc(CCC=O)cc1 [Bourgeonal] | aktivierte deutlich | > 10^-6 M | 30 | ≥ 10^-8 M |  |  |  |
| CCCCCCCCCCC=O [n-Undecanal] |  |  |  |  | inhibiert | keinen messbaren Effekt | nicht signifikant erhöht |
